Target: Tyrosine-protein phosphatase non-receptor type 14 (Homo sapiens) (UniProt Q15678)
Experiment: inhibition of PTPN14 enzymatic activity – biochemical, human, DiFMUP fluorescence (AID 402)
Settings: recombinant PTPN14, DiFMUP fluorescence phosphatase assay; at 50 µM; stronger effect = higher value

Tyrosine-protein phosphatase non-receptor type 14 (Homo sapiens), sequence (Q15678 whole entry, looked up): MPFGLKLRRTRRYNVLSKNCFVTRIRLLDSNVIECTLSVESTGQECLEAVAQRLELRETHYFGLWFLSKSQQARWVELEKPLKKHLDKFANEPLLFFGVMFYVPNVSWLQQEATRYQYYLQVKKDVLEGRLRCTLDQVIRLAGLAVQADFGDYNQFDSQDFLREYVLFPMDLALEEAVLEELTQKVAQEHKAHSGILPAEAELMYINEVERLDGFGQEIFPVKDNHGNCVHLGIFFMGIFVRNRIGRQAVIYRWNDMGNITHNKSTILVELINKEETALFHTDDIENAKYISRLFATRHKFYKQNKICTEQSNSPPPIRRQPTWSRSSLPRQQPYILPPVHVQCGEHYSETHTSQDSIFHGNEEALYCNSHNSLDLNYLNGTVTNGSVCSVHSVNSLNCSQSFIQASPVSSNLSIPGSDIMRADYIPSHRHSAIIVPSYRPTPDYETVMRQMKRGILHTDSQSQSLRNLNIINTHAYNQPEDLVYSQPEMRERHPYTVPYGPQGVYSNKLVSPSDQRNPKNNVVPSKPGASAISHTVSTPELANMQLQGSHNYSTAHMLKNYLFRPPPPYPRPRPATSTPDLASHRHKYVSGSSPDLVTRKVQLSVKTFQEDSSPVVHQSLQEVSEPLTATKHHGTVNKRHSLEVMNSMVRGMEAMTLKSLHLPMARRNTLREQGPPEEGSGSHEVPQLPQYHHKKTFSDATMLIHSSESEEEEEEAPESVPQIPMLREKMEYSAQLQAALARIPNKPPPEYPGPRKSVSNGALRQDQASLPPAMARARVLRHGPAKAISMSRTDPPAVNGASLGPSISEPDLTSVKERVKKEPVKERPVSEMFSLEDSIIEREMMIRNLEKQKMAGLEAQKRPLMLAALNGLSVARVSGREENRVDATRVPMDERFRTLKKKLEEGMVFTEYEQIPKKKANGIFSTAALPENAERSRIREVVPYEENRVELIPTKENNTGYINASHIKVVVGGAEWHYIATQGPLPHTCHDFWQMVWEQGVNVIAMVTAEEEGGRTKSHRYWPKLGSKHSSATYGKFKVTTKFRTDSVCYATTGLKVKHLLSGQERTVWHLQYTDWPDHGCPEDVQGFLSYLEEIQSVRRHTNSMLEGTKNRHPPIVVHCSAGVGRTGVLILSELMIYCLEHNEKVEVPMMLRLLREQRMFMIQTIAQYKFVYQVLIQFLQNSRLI

SMILES | inhibition [%]
OO.OO.[K+].[O]=[V].c1cnc2c(c1)ccc1cccnc12 | 49
Cn1c(=O)[nH]c2c(c1=O)[n+](=O)c(/C=C/c1ccccc1)nn2C | 28
Cn1nc(-c2ccccc2)nc2c(=O)n(C)c(=O)nc1-2 | 39.5
Cn1nc(/C=C/c2ccccc2)nc2c(=O)n(C)c(=O)nc1-2 | 37
c1ccc([C@H]2CN3CCSC3=N2)cc1 | 27
O=P(O)(O)Oc1cccc2ccccc12 | 26
CCn1nc(/C=C/c2ccccc2)nc2c(=O)n(C)c(=O)nc1-2 | 24
O=C(O)c1ccc(O)cn1.OO.[O]=[V] | 62.5
CN(N=O)c1ccc(O)c(O)c1 | 68
OO.OO.[K+].[O]=[V].c1ccc(-c2ccccn2)nc1 | 72
CCn1nc(-c2ccccc2)nc2c(=O)n(C)c(=O)nc1-2 | 25.5
CCn1nc(/C=C/c2ccccc2)[n+](=O)c2c(=O)n(C)c(=O)[nH]c21 | 33
O=C(O)c1ccc([O-])cn1.OO.OO.[K+].[K+].[O]=[V] | 70
[NH-]CO.[NH-]CO.[NH-]CO.[NH-]CO.[O]=[V][O][V]=[O] | 28.5
CCn1nc(-c2ccc(Cl)cc2)nc2c(=O)n(C)c(=O)nc1-2 | 30.5
O=C([O-])c1ccccn1.OO.OO.[K+].[K+].[O]=[V] | 73
O=P(O)(O)OC(CO)CO | 27

Source: PubChem BioAssay AID402 (SGCOxCompounds, 2006)
